In patent US20150196490A1 (priority 2011, published 2015):

System: sweat production
Conditions: human, in vivo

Compound: CCCCCCCCCCCCCC(=O)OC(C)C [Isopropyl Myristate]
- greater effectiveness in reducing sweat production than placebo: 191%
- greater reduction in sweat production than the control group: 195%
- reduction in sweat production: 103 mg
- subjects with at least a 30% reduction in sweat production compared to Baseline: 55%

Compound: CCCOC(=O)c1ccc(O)cc1 [Propylparaben]
- greater effectiveness in reducing sweat production than placebo: 245%
- greater reduction in sweat production than the control group: 337%
- reduction in sweat production: 177 mg
- subjects with at least a 30% reduction in sweat production compared to Baseline: 70%

Compound: Polysorbate 80
- greater effectiveness in reducing sweat production than placebo: 280%
- greater reduction in sweat production than the control group: 300%
- reduction in sweat production: 159 mg
- subjects with at least a 30% reduction in sweat production compared to Baseline: 80%
